In patent publication US20020028938A1, “Prostaglandin endoperoxide H synthase biosynthesis inhibitors” (priority 1997, published 2002):

What was measured:
[1] = molecular target: T1, recombinant human Cox-2 (r-hu Cox-2) (Homo sapiens, UniProt P35354); experiment: Recombinant human PGHS-2 enzyme assay (RHUCX2); type: biochemical; settings: for IC50: read-out: RHUCX2 IC50 (parenthetical value)
T1 construct: made in house; host or cells: baculovirus/Sf9 insect cells (microsomes)
T1 sequence (P35354 18-604): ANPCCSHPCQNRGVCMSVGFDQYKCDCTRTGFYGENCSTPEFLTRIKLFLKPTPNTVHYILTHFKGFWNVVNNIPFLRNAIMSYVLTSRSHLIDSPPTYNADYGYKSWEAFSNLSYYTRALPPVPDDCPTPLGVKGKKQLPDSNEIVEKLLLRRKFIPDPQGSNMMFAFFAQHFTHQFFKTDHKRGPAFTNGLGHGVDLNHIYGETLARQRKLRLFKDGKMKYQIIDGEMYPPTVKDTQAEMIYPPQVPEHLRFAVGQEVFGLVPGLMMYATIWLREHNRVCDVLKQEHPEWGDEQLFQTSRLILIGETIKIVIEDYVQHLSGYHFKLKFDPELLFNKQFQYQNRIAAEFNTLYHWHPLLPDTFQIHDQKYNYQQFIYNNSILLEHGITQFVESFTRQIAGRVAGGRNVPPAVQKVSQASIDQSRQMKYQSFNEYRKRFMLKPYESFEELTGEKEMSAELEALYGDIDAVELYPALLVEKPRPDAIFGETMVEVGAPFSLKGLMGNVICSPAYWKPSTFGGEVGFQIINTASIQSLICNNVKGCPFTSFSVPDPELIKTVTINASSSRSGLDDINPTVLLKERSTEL
Procedure: (§1) To compare the mean responses of the treatment groups, analysis of variance was applied. Percent inhibition values were determined by comparing the individual treatment mean values to the mean of the control group. Linear regression was used to estimate IC50's/ED50's in appropriate assays.
(§2) EIA reagents for prostaglandin determination were purchased from Perseptive Diagnostics, (Cambridge, Mass.). Prostaglandin E2 (PGE2) levels in lavage fluids were determined after the samples were dried under nitrogen and reconstituted with assay buffer. PGE2 levels in enzyme assays or cell culture media were measured against standards prepared in the same milieu. The immunoassays were conducted as recommended by the manufacturer. The EIA was conducted in 96 well microtiter plates (Nunc Roskilde, Denmark) and optical density was measured using a microplate reader (Vmax, Molecular Devices Corp., Menlo Park, Calif.).
(§3) Inhibition of prostaglandin biosynthesis in vitro was evaluated using recombinant human Cox-1 (r-hu Cox1) and Cox-2 (r-hu Cox-2) enzyme assays. […] The reaction was allowed to run for 2.5 minutes at room temperature prior to quenching with HCl and neutralization with NaOH. PGE2 production in the presence and absence of the drug was determined by EIA analysis. The EIA was conducted in 96 well microtiter plates (Nunc Roskilde, Denmark) and optical density was measured using a microplate reader (Vmax, Molecular Devices Corp., Menlo Park, Calif.). EIA reagents for prostaglandin determination were purchased from Perseptive Diagnostics (Cambridge, Mass.). PGE2 levels were measured against standards prepared in the same milieu. The immunoassays were conducted as recommended by the manufacturer.

[2] = molecular target: T2, recombinant human Cox-1 (r-hu Cox1) (Homo sapiens, UniProt P23219); experiment: Recombinant human PGHS-1 enzyme assay (RHUCX1); type: biochemical
T2 construct: made in house; host or cells: baculovirus/Sf9 insect cells (microsomes)
Procedure: as §1, §2, §3

[3] = 0.01 μM, read-out: RHUCX2 % Inh. at Dose
[4] = 100 μM, read-out: RHUCX1 % Inh. at Dose
[5] = 0.1 μM, read-out: RHUCX2 % Inh. at Dose
[6] = 1 μM, read-out: RHUCX2 % Inh. at Dose
[7] = 10 μM, read-out: RHUCX1 % Inh. at Dose

T2 sequence (P23219 24-599): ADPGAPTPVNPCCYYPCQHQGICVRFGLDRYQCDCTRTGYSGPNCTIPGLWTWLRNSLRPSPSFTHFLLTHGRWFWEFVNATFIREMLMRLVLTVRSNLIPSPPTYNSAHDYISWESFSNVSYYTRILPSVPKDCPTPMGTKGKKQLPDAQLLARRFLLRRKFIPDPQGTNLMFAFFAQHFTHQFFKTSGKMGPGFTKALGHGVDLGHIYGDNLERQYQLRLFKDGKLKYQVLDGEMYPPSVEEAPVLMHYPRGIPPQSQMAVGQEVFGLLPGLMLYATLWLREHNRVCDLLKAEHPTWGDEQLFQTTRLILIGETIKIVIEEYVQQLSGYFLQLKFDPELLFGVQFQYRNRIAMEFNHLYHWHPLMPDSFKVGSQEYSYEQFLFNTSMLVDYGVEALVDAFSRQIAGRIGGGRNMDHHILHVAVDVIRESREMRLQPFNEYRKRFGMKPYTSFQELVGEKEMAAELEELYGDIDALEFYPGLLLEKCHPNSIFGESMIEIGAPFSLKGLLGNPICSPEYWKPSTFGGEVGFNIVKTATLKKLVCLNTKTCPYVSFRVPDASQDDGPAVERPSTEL

SMILES: CS(=O)(=O)c1ccc(-c2cnn(Cc3ccc(F)cc3F)c(=O)c2-c2ccc(F)cc2)cc1 [Example 22, 2-(2,4-Difluorobenzyl)-4-(4-fluorophenyl)-5-[4-(methylsulfonyl)phenyl]-3(2H)-pyridazinone]
- inhibition at 0.01 µM [1, 3]: 35%
- inhibition at 0.03 µM ([1]; 0.03 μM, read-out: RHUCX2 % Inh. at Dose): 91%
- melting point: 179 to 182 °C
- inhibition at 100 µM [2, 4]: 25%

SMILES: CS(=O)(=O)c1ccc(-c2cnn(Cc3ccccc3C(F)(F)F)c(=O)c2-c2ccc(F)cc2)cc1 [Example 25, 2-(2-Trifluoromethylbenzyl)-4-(4-fluorophenyl)-5-[4-(methylsulfonyl)phenyl]-3(2H)-pyridazinone]
- inhibition at 0.1 µM [1, 5]: 66%
- inhibition at 1 µM [1, 6]: 93%
- melting point: 87 to 90 °C
- inhibition at 100 µM [2, 4]: 1%

SMILES: CS(=O)(=O)c1ccc(-c2cnn(CC3CC3)c(=O)c2-c2ccc(F)cc2)cc1 [Example 26, 2-(Cyclopropylmethyl)-4-(4-fluorophenyl)-5-[4-(methylsulfonyl)phenyl]-3(2H)-pyridazinone]
- inhibition at 0.01 µM [1, 3]: 44%
- inhibition at 0.1 µM [1, 5]: 44%
- inhibition at 1 µM [1, 6]: 91%
- melting point: 118 to 121 °C
- inhibition at 100 µM [2, 4]: 10%

SMILES: CS(=O)(=O)c1ccc(-c2cnn(CC=C(Cl)Cl)c(=O)c2-c2ccc(F)cc2)cc1 [Example 35]
- IC50 [1]: 17 nM
- melting point: 150 to 152 °C
- inhibition at 10 µM [2, 7]: 34%

SMILES: CS(=O)(=O)c1ccc(-c2cnn(CC=Cc3ccccc3)c(=O)c2-c2ccc(F)cc2)cc1 [Example 36, 2-(3-Phenyl-2-propenyl)-4-(4-fluorophenyl)-5-[4-(methylsulfonyl)phenyl]-3(2H)-pyridazinone]
- IC50 [1]: 570 nM
- melting point: 165 to 167 °C
- inhibition at 10 µM [2, 7]: 21%

SMILES: CS(=O)(=O)c1ccc(-c2cnn(Cc3ncc(Cl)s3)c(=O)c2-c2ccc(F)cc2)cc1 [Example 39, 2-(5-Chlorothiazol-2-ylmethyl)-4-(4-fluorophenyl)-5-[4-(methylsulfonyl)phenyl]-3(2H)-pyridazinone]
- IC50 [1]: 440 nM
- melting point: 185 to 186 °C
- inhibition at 100 µM [2, 4]: 0%

SMILES: CS(=O)(=O)c1ccc(-c2cnn(C=C(F)C(F)(F)C(F)(F)F)c(=O)c2-c2ccc(F)cc2)cc1 [Example 40, 2-(2,3,3,4,4,4-Hexafluorobuten-1-yl)-4-(4-fluorophenyl)-5-[4-(methylsulfonyl)phenyl]-3(2H)-pyridazinone]
- inhibition at 0.1 µM [1, 5]: 89%
- inhibition at 1 µM [1, 6]: 97%
- melting point: 167 to 169 °C
- inhibition at 1 µM ([2]; 1 μM, read-out: RHUCX1 % Inh. at Dose): 69%
- inhibition at 10 µM [2, 7]: 76%

SMILES: CS(=O)(=O)c1ccc(-c2cnn(Cc3c(F)c(F)c(F)c(F)c3F)c(=O)c2-c2ccc(F)cc2)cc1 [Example 45, 2-(2,3,4,5,6-Pentafluorobenzyl)-4-(4-fluorophenyl)-5-[4-(methylsulfonyl)phenyl]-3(2H)-pyridazinone]
- inhibition at 0.1 µM [1, 5]: 63%
- inhibition at 1 µM [1, 6]: 85%
- melting point: 115 to 116 °C
- inhibition at 100 µM [2, 4]: 5%

SMILES: O=c1c(-c2ccc(F)cc2)c(-c2ccc(S(=O)(=O)C(F)(F)F)cc2)cnn1Cc1ccccc1 [Example 260, 2-Benzyl-4-(4-fluorophenyl)-5-[4-(trifluoromethylsulfonyl)phenyl]-3(2H)-pyridazinone]
- inhibition at 10 µM ([1]; 10 μM, read-out: RHUCX2 % Inh. at Dose): 2%
- inhibition at 100 µM [2, 4]: 8%

SMILES: CS(=O)(=O)c1ccc(-c2cnn(CC(F)(F)F)c(=O)c2Oc2cc(C(F)(F)F)ccc2F)cc1 [Example 263, 2-(2,2,2-Trifluoroethyl)-4-(2-fluoro-5-trifluoromethylphenoxy)-5-[4-(methylsulfonyl)phenyl]-3(2H)-pridazinone]
- RHUCX2 % Inh. at Dose (μM) ([1]; 0.1 μM): 53 @ 0.1%
- RHUCX2 % Inh. at Dose (μM) ([1]; 1 μM): 76 @ 1%
- RHUCX2 % Inh. at Dose (μM) ([1]; 10 μM): 85 @ 10%
- RHUCX1 % Inh. at Dose (μM) ([2]; 100 μM): 1 @ 100%

SMILES: COc1ccc(CCOc2c(-c3ccc(S(C)(=O)=O)cc3)cnn(CC(F)(F)F)c2=O)cc1OC [Example 272]
- RHUCX2 % Inh. at Dose (μM) ([1]; 0.1 μM): 55 @ 0.1%
- RHUCX2 % Inh. at Dose (μM) ([1]; 1 μM): 70 @ 1%
- RHUCX1 % Inh. at Dose (μM) ([2]; 100 μM): 0 @ 100%

SMILES: CS(=O)(=O)c1ccc(-c2cnn(CC(F)(F)F)c(=O)c2OCCN2CCOCC2)cc1 [Example 273]
- RHUCX2 % Inh. at Dose (μM) ([1]; 1 μM): 42 @ 1%
- RHUCX2 % Inh. at Dose (μM) ([1]; 10 μM): 54 @ 10%
- RHUCX1 % Inh. at Dose (μM) ([2]; 100 μM): 16 @ 100%

SMILES: CS(=O)(=O)c1ccc(-c2cnn(CC(F)(F)F)c(=O)c2SC2CCCC2)cc1 [Example 283]
- RHUCX2 % Inh. at Dose (μM) ([1]; 0.1 μM): 54 @ 0.1%
- RHUCX2 % Inh. at Dose (μM) ([1]; 1 μM): 71 @ 1%
- RHUCX2 % Inh. at Dose (μM) ([1]; 10 μM): 90 @ 10%
- RHUCX1 % Inh. at Dose (μM) ([2]; 100 μM): 0 @ 100%

SMILES: CS(=O)(=O)c1ccc(-c2cnn(CC(F)(F)F)c(=O)c2Nc2ccc(F)cc2F)cc1 [Example 314]
- RHUCX2 % Inh. at Dose (μM) ([1]; 1 μM): 4 @ 1%
- RHUCX2 % Inh. at Dose (μM) ([1]; 10 μM): 51 @ 10%
- RHUCX1 % Inh. at Dose (μM) ([2]; 100 μM): 7 @ 100%

SMILES: CS(=O)(=O)c1ccc(-c2cnn(Cc3ccccc3)c(=O)c2-c2cc3ccccc3o2)cc1 [Example 318, 2-Benzyl-4-(2-benzofuranyl)-5-[4-(methylsulfonyl)phenyl]-3(2H)-pyridazinone]
- inhibition at 0.1 µM [1, 5]: 77%
- inhibition at 1 µM [1, 6]: 97%
- inhibition at 100 µM [2, 4]: 23%

SMILES: CN(Cc1ccccc1)c1c(-c2ccc(S(C)(=O)=O)cc2)cnn(-c2cccc(Cl)c2)c1=O [Example 354, 2-(3-Chlorophenyl)-4-(N-methylbenzylamnino)-5-[4-(methylsulfonyl)phenyl]-3(2H)-pyridazinone]
- RHUCX2 % Inh. at Dose (μM) ([1]; 0.1 μM): 36 @ 0.1%
- RHUCX2 % Inh. at Dose (μM) ([1]; 1 μM): 45 @ 1%
- RHUCX2 % Inh. at Dose (μM) ([1]; 10 μM): 45 @ 10%
- RHUCX1 % Inh. at Dose (μM) ([2]; 100 μM): ∠@ 100

SMILES: CS(=O)(=O)c1ccc(-c2cnn(-c3cccc(Cl)c3)c(=O)c2C2CCCC2)cc1 [Example 362, 2-(3-Chlorophenyl)-4-(cyclopentyl)-5-[4-(methylonylsulfonyl)phenyl]-(2H)-pyridazinone]
- RHUCX2 % Inh. at Dose (μM) ([1]; 1 μM): 49 @ 1%
- RHUCX2 % Inh. at Dose (μM) ([1]; 10 μM): 84 @ 10%
- RHUCX1 % Inh. at Dose (μM) ([2]; 100 μM): 1 @ 100%

SMILES: Cc1ccc(-c2c(-c3ccc(S(N)(=O)=O)cc3)cnn(-c3ccc(F)cc3)c2=O)cc1F [Example 387]
- RHUCX2 % Inh. at Dose (μM) ([1]; 0.01 μM): 56 @ 0.01%
- RHUCX2 % Inh. at Dose (μM) ([1]; 0.1 μM): 65 @ 0.1%
- RHUCX2 % Inh. at Dose (μM) ([1]; 1 μM): 76 @ 1%
- RHUCX1 % Inh. at Dose (μM) ([2]; 1 μM): 60 @ 1%
- RHUCX1 % Inh. at Dose (μM) ([2]; 10 μM): 57 @ 10%

SMILES: NS(=O)(=O)c1ccc(-c2cnn(-c3cccc(Cl)c3)c(=O)c2CCc2ccccc2)cc1 [Example 393, 2-(3-Chlorophenyl)-4-(phenethyl)-5-[4-(aminosulfonyl)phenyl]-3(2H)-pyridazinone]
- inhibition at 0.1 µM [1, 5]: 58%
- inhibition at 1 µM [1, 6]: 85%
- inhibition at 100 µM [2, 4]: 15%

SMILES: CC(C)CCOc1c(-c2ccc(S(N)(=O)=O)cc2)cnn(-c2ccc(F)cc2)c1=O [Example 398, 2-(4-Fluorophenyl)-4-(3-methylbutoxy)-5-[4-(aminosulfonyl)phenyl]-3(2H)-pyrdazinone]
- IC50 [1]: 202 nM
- inhibition at 100 µM [2, 4]: 26%

SMILES: CC(C)COc1c(-c2ccc(S(N)(=O)=O)c(F)c2)cnn(-c2cccc(Cl)c2)c1=O [Example 412]
- IC50 [1]: 2 nM
- inhibition at 100 µM [2, 4]: 31%

SMILES: CC(C)CCCc1c(-c2ccc(S(C)(=O)=O)cc2)cnn(-c2cccc(Cl)c2)c1=O [Example 421, 2-(3-Chlorophenyl)-4-(4-methylpentyl)-5-[4-(methylsulfonyl)phenyl]-3(2H)-pyridazinone]
- inhibition at 0.01 µM [1, 3]: 38%
- inhibition at 0.1 µM [1, 5]: 81%
- inhibition at 1 µM [1, 6]: 92%
- IC50 ([2]; read-out: RHUCX1 IC50 (parenthetical value)): 269 nM

SMILES: CC(C)=CCOc1c(-c2ccc(S(C)(=O)=O)cc2)cnn(-c2ccc(F)cc2)c1=O [Example 422]
- RHUCX2 % Inh. at Dose (μM) ([1]; 0.1 μM): 37 @ 0.1%
- RHUCX2 % Inh. at Dose (μM) ([1]; 1 μM): 52 @ 1%
- RHUCX1 % Inh. at Dose (μM) ([2]; 1 μM): 76 @ 1%
- RHUCX1 % Inh. at Dose (μM) ([2]; 10 μM): 82 @ 10%
- RHUCX1 % Inh. at Dose (μM) ([2]; 100 μM): 53 @ 100%

SMILES: CC(C)=CCCOc1c(-c2ccc(S(C)(=O)=O)cc2)cnn(-c2ccc(F)cc2)c1=O [Example 424]
- RHUCX2 % Inh. at Dose (μM) ([1]; 0.01 μM): 33 @ 0.01%
- RHUCX2 % Inh. at Dose (μM) ([1]; 0.1 μM): 58 @ 0.1%
- RHUCX2 % Inh. at Dose (μM) ([1]; 1 μM): 75 @ 1%
- RHUCX1 % Inh. at Dose (μM) ([2]; 100 μM): 7 @ 100%
